# In patent US20190022225A1, “PROTOCOL FOR INCREASING LIFE EXPECTANCY IN A TEST SUBJECT” (Mayo Foundation for Medical Education and Research, priority 2015, published 2019):
# Entries after “also recorded” stand apart in the source; their conditions may differ.
# Columns and labels:
# Type in all cases: in vivo, mouse
# [1] = system: INK-ATTAC transgenic mice; assay: Cardiac stress test (lethal isoproterenol) in INK-ATTAC mice treated with AP20187
# Protocol: To study the impact of senescent cell clearance on health and lifespan, cohorts of INK-ATTAC transgenic mice on FVB×129Sv/E×C57BL/6 mixed or C57BL/6 pure genetic backgrounds were established. At 12 months age, one half of each cohort was injected three times/week with AP20187 to induce apoptosis of p16-positive senescent cells (0.2 mg/kg and 2 mg/kg AP20187 for the mixed and the pure C57BL/6 cohorts, respectively), while the other half of each cohort received vehicle. At 18 months, subsets of male and female mice from each cohort were subjected to a cardiac stress test, in which mice were injected with a lethal dose of isoproterenol (680 mg/kg) and the time to cardiac arrest was recorded.
# Cardio-protective signaling pathways are known to provide tolerance to metabolic stresses such as ischemia and hypoxia decline (Granfeldt et al., 2009, Cardiovasc. Res. 83:234-246). […] ATP-dependent K channels (KATP) play a central role in cardio-protective signaling (Gross and Auchampach, 1992, Cardiovasc. Res. 26:1011-1016).). These KATP channels are composed of the pore-forming subunit Kir6.2/Kir6.1, the regulatory subunit Sur2a, and additional accessory proteins. […]
# aging mice = assay: Late life muscle strength and condition (grip strength, treadmill, muscle weight, fiber area)
# Protocol: Grip strength was measured in untreated 12 month old mice, and in mice treated with either vehicle or AP20187 at 18 and 28 months of age.
# Muscle strength was also assessed by determining exercise duration and distance on a treadmill.
# As an additional measure of muscle condition gastrocnemius and tibialis anterior muscles, shown in FIG. 99, where dissected from senolysis treated and untreated 28 month old mice and weighed. As shown in FIGS. 100 and 101 the gastrocnemius and tibialis anterior muscles are heavier in treated mice than in untreated mice, muscle weights from untreated 18 month old mice are included to show the age related decline. Muscle fiber area of the gastrocnemius and tibialis anterior muscles was also used to assess muscle condition.
# INKattac mice [2] = assay: Micro CT estimate of intervertebral disc space (IVS) in aged mice
# Protocol: (§1) This example describes a method for assessing the effect of senotlytic agents or killing of senescent cells on bone structure. Two groups of INKattac mice are used for this method: mice treated from 12-28 months of age with vehicle (“old” controls) and mice treated from 12-28 months of age with AP20187. All mice used in this example were male. After sacrifice the cadavers were fixed in 10% neutral buffered formalin, and stored at 4° C.
# Intervertebral discs are type of cartilage filling the space between vertebras of the spine. They are known to decrease in function and volume with age. We estimated the intervertebral volumes between specific vertebra in spines of aged mice, with and without senolytic treatment, to determine if intervertebral disc space was maintained in aged animals through senolysis.
# While IVDs cannot be directly visualized with the micro-CT method of example 43, an image segmentation protocol was developed to infer disc volume by determining the volume between lumbar vertebra L6 and L5, L5 and L4, and L4 and L3 to estimate the intervertebral disc space (IVS) (FIG. 94).
# INKattac mice [3] = assay: Micro CT of femoral cortical bone in INKattac mice treated from 12-28 months
# Protocol: as §1
# Mice were cleaned of excess tissue, and placed in a Bruker 1176 “Skyscanner” for micro computerized tomographic (mCT) scanning. A variety of settings were explored to visualize whole skeletons, the following settings were used in this example: 65 Kv, 385 μA, 17.58 μm, 0.5 mm Al filter, rotation step 0.5, frame averaging 6, smoothing 2, smoothing kernel 2, ring artifact correction 4, and beam hardening correction 30%. Typical acquisition consisted of a whole body scan, followed by additional scans if necessary for further data exploration.
# Reconstruction of the raw data was carried out. Subvoluming of anatomical features of interest was then further performed on the whole skeleton, using DataViewer, or CtAn software (Bruker). […]
# The average thickness of each 2 mm subvolume was measured in treated versus non-treated animals. […]
# [4] = system: 3MR or INK-ATTAC mice exposed to cigarette smoke; assay: Cigarette smoke exposure model (COPD), oxygen saturation; conditions: after 2 months of cigarette smoke exposure
# Protocol: Six week-old 3MR (n=35) or INK-ATTAC (n=35) mice were chronically exposed to cigarette smoke generated from a Teague TE-10 system, an automatically-controlled cigarette smoking machine that produces a combination of side-stream and mainstream cigarette smoke in a chamber, which is transported to a collecting and mixing chamber where varying amounts of air is mixed with the smoke mixture. […] Mice received a total of 6 hours of cigarette smoke exposure per day, 5 days a week for 6 months. Each lighted cigarette (3R4F research cigarettes containing 10.9 mg of total particulate matter (TPM), 9.4 mg of tar, and 0.726 mg of nicotine, and 11.9 mg carbon monoxide per cigarette [University of Kentucky, Lexington, Ky.]) was puffed for 2 seconds and once every minute for a total of 8 puffs, with the flow rate of 1.05 L/min, to provide a standard puff of 35 cm^3. The smoke machine was adjusted to produce a mixture of side stream smoke (89%) and mainstream smoke (11%) by smoldering 2 cigarettes at one time. The smoke chamber atmosphere was monitored for total suspended particulates (80-120 mg/m^3) and carbon monoxide (350 ppm). Beginning at day 7, (10) INK-ATTAC and (10) 3MR mice were treated with AP20187 (3×per week) or gancyclovir (5 consecutive days of treatment followed by 16 days off drug, repeated until the end of the experiment), respectively. An equal number of mice received the corresponding vehicle. The remaining 30 mice (15 INK-ATTAC and 15 3MR) were evenly split with 5 of each genetically modified strain placed into three different treatment groups. One group (n=10) received Nutlin-3A (25 mg/kg dissolved in 10% DMSO/3% Tween-20 in PBS, treated 14 days consecutively followed by 14 days off drug, repeated until the end of the experiment). One group (n=10) received ABT-263 (Navitoclax) (100 mg/kg dissolved in 15% DMSO/5% Tween-20, treated 7 days consecutively followed by 14 days off drug, repeated until the end of the experiment), and the last group (n=10) received only the vehicle used for ABT-263 (15% DMSO/5% Tween-20), following the same treatment regimen as ABT-263.
# After two months of cigarette smoke exposure, lung function was assessed by monitoring oxygen saturation using the MouseSTAT PhysioSuite pulse oximeter (Kent Scientific). Animals were anesthetized with isoflurane (1.5%) and the toe clip was applied. Mice were monitored for 30 seconds and the average peripheral capillary oxygen saturation (SpO2) measurement over this duration was calculated.
smiles,measurement,setting,value
CC[C@H](C(=O)N1CCCC[C@H]1C(=O)O[C@H](CCc1ccc(OC)c(OC)c1)c1cccc(OCC(=O)NCC(CNC(=O)COc2cccc([C@@H](CCc3ccc(OC)c(OC)c3)OC(=O)[C@@H]3CCCCN3C(=O)[C@@H](CC)c3cc(OC)c(OC)c(OC)c3)c2)CN(C)C)c1)c1cc(OC)c(OC)c(OC)c1 [AP20187],time to cardiac arrest after lethal isoproterenol (cardio-protection),[1]; 0.2 or 2 mg/kg three times/week from 12 to 18 months,sustained youthful cardio-protection against isoproterenol
same,Sur2a expression in heart,[1]; 18-month-old female mice,sustained Sur2a expression
same,gastrocnemius and tibialis anterior muscle weight,aging mice; 28 month old mice,decreased muscle loss with age
same,exercise distance on treadmill,"aging mice; 28 months, versus vehicle",increased exercise distance; also recorded: greater distances
same,exercise duration on treadmill,"aging mice; 28 months, versus vehicle",increased duration of exercise; also recorded: exercised for longer
same,grip strength,"aging mice; 28 months, versus vehicle",increased grip strength; also recorded: decreased loss of muscle strength
same,improvement of intervertebral disc space (IVS),"INKattac mice [2]; L6-L5, L5-L4, L4-L3, versus vehicle",25-33%
same,"IVS versus vehicle treated controls, significance",INKattac mice [2]; three sites in the spine,statistically significantly greater
same,cortical thickness of femoral bone,"INKattac mice [3]; aged mice, versus controls",increased
same,retention of cortical bone volume (BV/TV) with age,"INKattac mice [3]; male mice treated from 12-28 months, 2 mm subvolume of femur mid-diaphysis",6.1%
same,SpO2 levels versus untreated controls,[4],statistically significant increases
